This assay relates to 843782-103-R-J1-PDC complex spheroid viability. As to the kind of experiment: Anticancer human tumor 843782-103-R-J1-PDC patient-derived lung adenocarcinoma cell line growth inhibition [RAS]. The conditions noted are these: for viability, T/C: stronger effect = lower value. The gist of the method: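 Multi-cell-type spheroids: tumor cells plus HUVEC endothelial cells and mesenchymal stem cells. RAS-pathway inhibitors were combined with targeted agents, each dosed in half-log steps down from clinical Cmax, or from 10 microM when Cmax was unknown.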

SMILES strings stand for the structures.
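Further: viability read after seven days of compound exposure.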

Regarding `CCn1c(-c2cc(N3CCN(C)CC3)cnc2C(C)OC)c2c3cc(ccc31)-c1csc(n1)CC(NC(=O)C1CC1C)C(=O)N1CCCC(N1)C(=O)OCC(C)(C)C2` (configuration not stated), the viability, T/C is 85.8% [middle of 8 runs] (compound 0.000949 µM); 65.7% [middle of 8 runs] (compound 0.003 µM); 37.1% [middle of 8 runs] (compound 0.00949 µM); 22.4% [middle of 8 runs] (compound 0.03 µM); 17.1% [middle of 8 runs] (compound 0.0949 µM); 14.2% [middle of 8 runs] (compound 0.3 µM). For the setting “compound alone, run of 08/26/2024”, the half-maximal inhibitory concentration (IC50) is 5.72 nM [middle of 8 runs].

Values taken from PubChem BioAssay AID2060883 (Molecular Pharmacology Branch, DTP, NCI, 2025).
